In BindingDB's records for doi:10.1016/0960-894X(95)00404-H (1995) one finds Kd data, which are given here for six molecules.

The nature of the assay: Binding affinity to protein phosphatase, calcineurin (CN) was determined.
`C=CC[C@@H]1/C=C(\C)C[C@H](C)C[C@H](OC)[C@H]2O[C@@](O)(C(=O)C(=O)N3CCCC[C@H]3C(=O)O[C@H](/C(C)=C/[C@@H]3CC[C@@H](O)[C@H](OC)C3)[C@H](C)[C@@H](O)CC1=O)[C@H](C)C[C@@H]2OC`: the Kd turned out to be 20 nM. Then `CCCC1C(=O)CC[C@@H](C)[C@@H](CCc2cccnc2)OC(=O)[C@@H]2CCCN(C2)C(=O)C(=O)CSCC[C@@H](OC)C[C@@H](C)CC(=O)N1C` (stereo partly drawn) [(8S,10R,18R,19R,22R)-8-Methoxy-10,13,18-trimethyl-14-propyl-19-(2-pyridin-3-yl-ethyl)-20-oxa-5-thia-1,13-diaza-bicyclo[20.3.1]hexacosane-2,3,12,15,21-pentaone], with > 1000 nM. For `C=CC[C@@H]1/C=C(\C)C[C@H](C)C[C@H](OC)[C@@H](O)[C@@H](OC)C[C@@H](C)CC(=O)C(=O)N2CCCC[C@H]2C(=O)O[C@H](/C(C)=C/[C@@H]2CC[C@@H](O)[C@H](OC)C2)[C@H](C)[C@@H](O)CC1=O` [18-(E)-allyl-11,21-Dihydroxy-23-[2-((R)-4-hydroxy-3-methoxy-cyclohexyl)-1-methyl-vinyl]-10,12-dimethoxy-8,14,16,22-pentamethyl-1,3,4,7,8,9,10,11,12,13,14,15,18,20,21,22,23,25a-octadecahydro-2H-24-oxa-4a-aza-benzocyclotricosene-5,6,19,25-tetraone], the Kd came to 350 nM. On to `C=CC[C@@H]1/C=C(\C)C[C@H](C)C[C@H](OC)[C@@H](O)[C@@H](OC)C[C@@H](C)c2ncoc2C(=O)N2CCCC[C@H]2C(=O)O[C@H](/C(C)=C/[C@@H]2CC[C@@H](O)[C@H](OC)C2)[C@H](C)C(O)CC1=O` (stereo partly drawn) [(E)-18-Allyl-11,21-dihydroxy-23-[(E)-2-((R)-4-hydroxy-3-methoxy-cyclohexyl)-1-methyl-vinyl]-10,12-dimethoxy-8,14,16,22-tetramethyl-4,24-dioxa-1,6-diaza-tricyclo[24.4.0.0*3,7*]triaconta-3(7),5,16-triene-2,19,25-], for which the Kd is 300 nM. `CCC(C)C1C(=O)CC[C@@H](C)[C@@H](CCc2cccnc2)OC(=O)[C@@H]2CCCN(C2)C(=O)C(=O)CCSCC[C@@H](OC)C[C@@H](C)CC(=O)N1C` (stereo partly drawn) [(9S,11R,19R,20R,23R)-15-sec-Butyl-9-methoxy-11,14,19-trimethyl-20-(2-pyridin-3-yl-ethyl)-21-oxa-6-thia-1,14-diaza-bicyclo[21.3.1]heptacosane-2,3,13,16,22-pentaone]: the Kd was > 1000 nM. Consider `CCCC1C(=O)CC[C@@H](C)[C@@H](CCc2cccnc2)OC(=O)[C@@H]2CCCN(C2)C(=O)C(O)CC[S+]([O-])CC[C@@H](OC)C[C@@H](C)CC(=O)N1C` (stereo partly drawn) [(9S,11R,19R,20R,23R)-3-Hydroxy-9-methoxy-11,14,19-trimethyl-6-oxo-15-propyl-20-(2-pyridin-3-yl-ethyl)-21-oxa-6lambda*4*-thia-1,14-diaza-bicyclo[21.3.1]heptacosane-2,13,16,22-tetraone], for which the Kd was > 1000 nM.

A word on the Kd: it is the constant that tells how readily two partners part at equilibrium.
